Test results taken from patent US5182289A, “Heterobicyclic compounds having antiinflammatory activity” (Schering Corporation, priority 1990, dated 1993).
Like-named read-outs stand apart in the source and are kept apart here. Values belong to the compound of their own block, whether it stands above or below them.

Experiments:
[1] = target: T1, cyclooxygenase (Homo sapiens, UniProt P23219); experiment: Cyclooxygenase Assay with Human Platelets, HHT production; type: cell-based; details: 15 μM
T1 construct: Cyclooxygenase Assay with Human Platelets; endogenous in cells; host or cells: human blood platelets from healthy volunteers
T1 sequence (P23219 24-599): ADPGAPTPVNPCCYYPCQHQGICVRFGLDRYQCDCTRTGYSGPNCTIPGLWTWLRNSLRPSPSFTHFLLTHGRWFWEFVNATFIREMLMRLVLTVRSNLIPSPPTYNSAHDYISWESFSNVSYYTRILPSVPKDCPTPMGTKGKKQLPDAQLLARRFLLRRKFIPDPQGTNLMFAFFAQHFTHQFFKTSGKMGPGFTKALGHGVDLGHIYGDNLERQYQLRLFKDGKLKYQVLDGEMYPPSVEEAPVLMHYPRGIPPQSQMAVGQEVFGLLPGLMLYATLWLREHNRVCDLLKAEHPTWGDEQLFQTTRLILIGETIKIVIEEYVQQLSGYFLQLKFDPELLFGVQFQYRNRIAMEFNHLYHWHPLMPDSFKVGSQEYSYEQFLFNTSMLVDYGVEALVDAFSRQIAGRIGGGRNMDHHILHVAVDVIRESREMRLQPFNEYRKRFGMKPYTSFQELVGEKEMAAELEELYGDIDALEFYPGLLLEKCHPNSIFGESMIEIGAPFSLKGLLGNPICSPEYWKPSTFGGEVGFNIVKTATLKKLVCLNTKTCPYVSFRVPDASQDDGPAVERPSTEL
Procedure: Cyclooxygenase Assay with Human Platelets
Blood is collected in acid-citrate-dextrose anticoagulant by venipuncture from normal healthy volunteers who said that they were not on any medication for the previous two weeks. Platelets are isolated by the procedure of Okuma and Uchino (Blood 54:1258-1271 (1979)). In brief, blood is centrifuged at 4° C. at 200×g for 10 minutes to sediment red and white cells. The platelet rich plasma (PRP) supernatant is removed and mixed with one-tenth volume of 77 mM EDTA, pH 7.2 and prostacyclin sodium salt is added to the PRP at a final concentration of 1 nanogram per milliliter(ng/mL). The PRP is centrifuged at 1700×g, 4° C. for 15 minutes. The platelet pellet is resuspended in the HEPES buffer described in the 5-lipoxygenase section above which additionally contained 1 ng/mL prostacyclin and 0.5 mM ethylene glycolbis(B-aminoethyl ether) N,N,N',N'-tetraacetic acid (EGTA) and the suspension is recentrifuged at 1,700×g, 4° C. for 15 minutes. The pellet is resuspended in HEPES buffer containing 0.5 mM EGTA and 1.5 mM CaCl2 at a cell count of 200,000 cells/ul. Platelets (0.2 ml of suspension) are preincubated with test compounds and the ^14 C-arachidonic acid plus the calcium ionophore A23187 stimulant exactly as described for the 5-lipoxygenase assay. The cyclooxygenase product 12-hydroxyheptadecatrienoic acid (HHT) is isolated and quantitated by the HPLC system used for the 5-lipoxygenaseassay. HHT elutes from this system at about eleven minutes. Results are expressed as percent inhibition of HHT production by the test compounds versus the test vehicle alone.

[2] = target: T2, 5-lipoxygenase (Homo sapiens, UniProt P09917); experiment: 5-Lipoxygenase Assay in human polymorphonuclear (PMN) leukocytes, 5-HETE production; type: cell-based
T2 construct: Human polymorphonuclear (PMN) leukocytes (neutrophils) are obtained from normal healthy volunteers; endogenous in cells; host or cells: human polymorphonuclear leukocytes (neutrophils) from blood of healthy volunteers
T2 sequence (P09917 1-674): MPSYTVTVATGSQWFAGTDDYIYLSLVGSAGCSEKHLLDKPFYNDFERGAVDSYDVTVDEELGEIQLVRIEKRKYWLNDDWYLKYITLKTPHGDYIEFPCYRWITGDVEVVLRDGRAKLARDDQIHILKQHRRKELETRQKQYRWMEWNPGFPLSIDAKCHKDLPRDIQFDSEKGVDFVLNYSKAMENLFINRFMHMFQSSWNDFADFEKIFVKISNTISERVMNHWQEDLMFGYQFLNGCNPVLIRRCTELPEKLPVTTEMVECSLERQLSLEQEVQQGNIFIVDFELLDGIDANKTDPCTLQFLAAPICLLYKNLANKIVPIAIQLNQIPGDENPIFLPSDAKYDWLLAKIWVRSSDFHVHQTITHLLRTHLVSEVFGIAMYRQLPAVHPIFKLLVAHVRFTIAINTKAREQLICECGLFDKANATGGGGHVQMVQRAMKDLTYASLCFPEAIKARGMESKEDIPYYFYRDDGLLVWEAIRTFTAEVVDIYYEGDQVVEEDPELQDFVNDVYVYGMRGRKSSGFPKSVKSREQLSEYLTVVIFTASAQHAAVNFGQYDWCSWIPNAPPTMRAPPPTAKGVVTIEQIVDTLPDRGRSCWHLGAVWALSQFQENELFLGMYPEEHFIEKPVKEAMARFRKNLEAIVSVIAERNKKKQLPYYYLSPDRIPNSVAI
Procedure: Human polymorphonuclear (PMN) leukocytes (neutrophils) are obtained from normal healthy volunteers by venipuncture and collected with heparin anticoagulant. Neutrophils are isolated by Dextran/Ficol sedimentation as described (Billah et al, J. Biol. Chem. 260, 6899-6906 (1985)). In brief, 30 ml of blood is mixed with 5 ml of dextran (Sigma) solution and kept at 37° C. for 30 min. The upper white cellrich layer is removed and 10 ml is layered on 9 ml of Ficol-Paque solution (Pharmacia) and centrifuged at 280×g for 10 min. at 5° C. The supernatant is removed and the neutrophil pellet is resuspended in HEPES buffer containing 25 mM N-2-hydroxyethylpiperazine-N^1 -2 ethanesulfonic acid(HEPES), 125 mM NaCl, 2.5 mM KCL, 0.7 mM MgCl2, 0.5 mM and 10 mM glucose at pH 7.4. The red cells in the suspension are lysed by hypotonic shock. The neutrophils are washed by centrifugation in HEPES buffer two times and finally resuspended at a concentration of 20×10^6 cells/ml in the presence of 1 mM CaCl2.
Neutrophils (0.2 ml of suspension) are preincubated with dimethylsulfoxide (DMSO) vehicle with or without test compound (1 ul) for 4 minutes then incubated for 5 minutes with ^14 C-arachidonic acid (Amersham, 59 Ci/mole) at a 9 uM final concentration, and the calcium ionophore A23187 (Calbiochem) at a 1 uM final concentration. These stimulants are added in 10 ul of water:ethanol (9:1). The reaction is stopped by addition of methanol (0.4 ml), and cellular debris is removed by centrifugation. Aliquots (100 ul) of the incubations are run on a Waters two pump high performance liquid chromatography (HPLC) system fitted with a DuPont Zorbax ODS, 5 u, 4×80 […] Reliance Cartridge column and C18 "Guard Pak". The column is initially eluted at 2 ml/min with 80 percent of the mixture water:methanol:acetic acid (46:54:0.08) containing 1 mM EDTA adjusted to pH 6.0 with ammonium hydroxide (Pump A) and 20% methanol (Pump B). At 10 minutes, a linear gradient is established. to reach 100 percent methanol (Pump B) at 27 minutes. Between 27 and 28 minutes, methanol is exchanged for the initial eluting solvent and by 35 minutes the column is reequilibrated for the next sample. The effluent is analyzed by a continuous flow radioactivity monitor (model ROMONA-D) interfaced with a Hewlett Packard Lab Automation System for quantitation of radioactive products. This includes the major 5-lipoxygenase product, 5-hydroxyeicosatetraenoic acid (5-HETE) which elutes at 20 minutes. The results with and without test compound are used to calculate percent inhibition of 5-HETE production.

[3] = system: Reversed Passive Arthus Reaction (RPAR) in the pleural cavity; experiment: Reversed Passive Arthus Reaction (RPAR) in the pleural cavity: cells and fluid; type: in vivo, male rats; details: dose 25 mpk; for inhibition in vivo at 25 mg/kg: Rattus norvegicus, 4 h; for RPAR-Pleural Cavity Percent Inhibition cells / RPAR-Pleural Cavity Percent Inhibition fluid: Table 3A, formula (IIi)
Procedure: Reversed Passive Arthus Reaction (RPAR) Assay
Groups of 4 male rats were injected in the penile vein with antigen (1 mg BSA in 0.2 mL of saline per rat) and 0.5 hour later injected in the pleural cavity with antibody (1.0 mg antibody protein in the IgG fraction of rabbit anti-BSA in 0.2 mL). […] After 4 hours the animals were killed with CO2, and the pleural cavities were opened and the exudate drained into a graduated conical glass centrifuge tube containing indomethacin (1.8 ug) and nordihydroguaiaretic acid (NDGA) (15 ug) to block ex vivo metabolite synthesis. The volume of the exudate was measured. The cavity was then washed out with saline-EDTA to achieve a final volume of 5.0 mL. The number of cells were determined in a Colulter Counter. The cells were spun-down (1000×g) and the exudate supernatant was added to 4 volumes of 95% ethanol and samples were kept on ice for 30 minutes. After removal of the protein precipitate (2,500×g) the ethanol extract of the exudate was dried under N2 and then stored at -20° C. For radioimmunoassay (RIA) analysis the samples were redissolved in water to a volume of 1 mL per rat. Utilizing internally spiked samples, recovery of TXB2 (tritiated thromboxane B2) and LTE4 (tritiated leukotriene-E4) from exudates was determined to be 84±2% (SEM) and 89±2% (N=4), respectively. Exudate samples were directly assayed in duplicate with the commercial ^3 H-TXB2 RIA kit from New England Nuclear and the ^3 H-LTC4 /D4 /E4 kit from Amersham. The assay was validated using reversed-phase HPLC analysis of LTs in the standard procedure described by M. W. Musch, R. W. Bryant, C. Coscollaela, R. F. Myers and M. I. Siegel, Prostaglandins, Vol. 29, pp 405-430 (1985). Samples of ethanol exudate extract were "spiked" with ^3 H-LTs to follow HPLC purification and recovery.

[4] = read-out: RPAR-Pleural Cavity % Inhibition cells
[5] = read-out: RPAR-Pleural Cavity % Inhibition fluid

Compound: 1,3-dihydro-3-(2-methoxyphenylthio)-1-phenyl-2H-pyrrolo[2,3-b]pyridin-2-one [Compound 23]
- % inhibition of HHT production in human platelets [1]: 49%
- PMN Assay % Inhibition 5-HETE ([2]; 15 μM): 47%
- PMN Assay % Inhibition 5-HETE ([2]; 50 μM): 81%

Compound: CC1(F)C(=O)N(c2ccccc2)c2ncccc21 (stereo not shown) [Compound 4, 1,3-dihydro-3-fluoro-3-methyl-1-phenyl-2H-pyrrolo[2,3-b]pyridin-2-one]
- inhibition in vivo at 25 mg/kg [3, 4]: 50%
- inhibition in vivo at 25 mg/kg [3, 5]: 35%

Compound: CC1(C)C(=S)N(c2ccccc2)c2ncccc21 [Compound 7, 1,3-dihydro-3,3-dimethyl-1-phenyl-2H-pyrrolo[2,3-b]pyridin-2-thione]
- inhibition in vivo at 25 mg/kg [3, 4]: 35%
- inhibition in vivo at 25 mg/kg [3, 5]: 33%

Compound: CSc1ccc(N2C(=O)C(C)(C)c3cccnc32)cc1 [Compound 10, 1,3-dihydro-3,3-dimethyl-1-[4-(methylthio)phenyl]-2H-pyrrolo[2,3-b]pyridin-2-one]
- inhibition in vivo at 25 mg/kg [3, 4]: 29%
- inhibition in vivo at 25 mg/kg [3, 5]: 37%

Compound: O=C1C(Sc2ccccc2)c2cccnc2N1c1ccccc1 (stereo not shown) [Compound 11, 1,3-dihydro-1-phenyl-3-(phenylthio)-2H-pyrrolo[2,3-b]pyridin-2-one]
- % inhibition of HHT production in human platelets at 15 µM ([1]; read-out: PMN Assay % Inhibition HHT): 23%
- inhibition at 15 µM ([2]; 15 μM): 67%

Compound: O=C1C(Sc2ccccc2)c2cccnc2N1c1cccc(C(F)(F)F)c1 (stereo not shown) [Compound 12, 1,3-dihydro-3-(phenylthio)-1-(3-trifluoromethylphenyl)-2H-pyrrolo[2,3-b]pyridin-2-one]
- inhibition at 15 µM ([2]; 15 μM): 79%

Compound: CC(=O)OCCSC1C(=O)N(c2ccccc2)c2ncccc21 (stereo not shown) [Compound 30, 1,3-dihydro-3-[2-(acetoxy)-ethylthio]-1-phenyl-2H-pyrrolo[2,3-b]pyridin-2-one]
- inhibition at 15 µM ([2]; 15 μM): 26%

Compound: O=C(O)Cc1cccnc1Nc1cccc(C(F)(F)F)c1 [Compound 45, 2-(3-trifluoromethylphenylamino)-3-pyridine acetic acid]
- RPAR-Pleural Cavity Percent Inhibition cells [3]: 22%
- RPAR-Pleural Cavity Percent Inhibition fluid [3]: 14%

Compound: CC(C)(C(=O)O)c1cccnc1Nc1ccc(Cl)cc1 [Compound 46, sodium 2-(4-chlorophenylamino)-α,α-dimethyl-3-pyridine acetate]
- RPAR-Pleural Cavity Percent Inhibition cells [3]: 62%
- RPAR-Pleural Cavity Percent Inhibition fluid [3]: 71%

Compound: O=C(O)Cc1cccnc1Nc1ccc(Cl)c(Cl)c1 [Compound 47, sodium 2-(3,4-dichlorophenylamino)-3-pyridine acetate]
- RPAR-Pleural Cavity Percent Inhibition cells [3]: 16%
- RPAR-Pleural Cavity Percent Inhibition fluid [3]: 19%

Compound: O=C(O)Cc1cccnc1Nc1ccc(Cl)cc1 [Compound 48, sodium 2-(4-chlorophenylamino)-3-pyridine acetate]
- RPAR-Pleural Cavity Percent Inhibition cells [3]: 0%
- RPAR-Pleural Cavity Percent Inhibition fluid [3]: 0%

Compound: CC(C(=O)O)c1cccnc1Nc1ccc(Cl)cc1 (stereo not drawn) [Compound 49, sodium 2-(4-chlorophenylamino)-α-methyl-3-pyridine acetate]
- RPAR-Pleural Cavity Percent Inhibition cells [3]: 67%
- RPAR-Pleural Cavity Percent Inhibition fluid [3]: 54%

Now from value to compound:

- inhibition at 50 µM ([2]; 50 μM): 84%
Compound: CC(C)c1ccc(N2C(=O)C(Sc3ccccc3)c3cccnc32)cc1 (stereo not shown) [Compound 15, 1,3-dihydro-1-(4-(1-methylethyl)-phenyl)-3-(phenylthio)-2H-pyrrolo[2,3-b]pyridin-2-one]

- inhibition at 15 µM ([2]; 15 μM): 61%
Compound: COc1ccc(SC2C(=O)N(c3ccccc3)c3ncccc32)cc1 (stereo not shown) [Compound 21, 1,3-dihydro-3-(4-methoxyphenylthio)-1-phenyl-2H-pyrrolo[2,3-b]pyridin-2-one]

- inhibition at 15 µM ([2]; 15 μM): 24%
Compound: CN1C(=O)C([S+]([O-])c2ccccc2)c2cccnc21 (stereo not shown) [Compound 24, 1,3-dihydro-1-methyl-3-(phenylsulfinyl)-2H-pyrrolo[2,3-b]pyridin-2-one]

- inhibition at 15 µM ([2]; 15 μM): 8%
Compound: O=C1C(SCCO)c2cccnc2N1c1ccccc1 (stereo not shown) [Compound 25, 1,3-dihydro-3-(2-hydroxyethylthio)-1-phenyl-2H-pyrrolo[2,3-b]pyridin-2-one]

- inhibition at 15 µM ([2]; 15 μM): 16%
Compound: O=C1C(Sc2ccccc2)c2cccnc2N1Cc1ccccc1 (stereo not shown) [Compound 27, 1,3-dihydro-1-(phenylmethyl)-3-(phenylthio)-2H-pyrrolo[2,3-b]pyridin-2-one]

- inhibition at 15 µM ([2]; 15 μM): 56%
Compound: CC(=O)C1(SCCO)C(=O)N(c2ccccc2)c2ncccc21 (stereo not shown) [Compound 29]

- inhibition at 15 µM ([2]; 15 μM): 10%
Compound: CN1C(=O)C(S(=O)(=O)c2ccccc2)c2cccnc21 (stereo not shown) [Compound 31, 1,3-dihydro-1-methyl-3-(phenylsulfonyl)-2H-pyrrolo[2,3-b]pyridin-2-one]

- inhibition at 15 µM ([2]; 15 μM): 21%
Compound: CSC1(C)C(=O)N(c2ccccc2)c2ncccc21 (stereo not shown) [Compound 32, 1,3-dihydro-3-methyl-3-(methylthio)-1-phenyl--2H-pyrrolo[2,3-b]pyridin-2-one]
